Measured values: ChEMBL document CHEMBL3991601, “The target landscape of clinical kinase drugs” (Science, 2017)
The source made the active and inactive calls.

Key:
[1] = molecular target: T1, Very long-chain specific acyl-CoA dehydrogenase, mitochondrial (Homo sapiens, UniProt P49748)
T1 sequence (P49748 whole entry): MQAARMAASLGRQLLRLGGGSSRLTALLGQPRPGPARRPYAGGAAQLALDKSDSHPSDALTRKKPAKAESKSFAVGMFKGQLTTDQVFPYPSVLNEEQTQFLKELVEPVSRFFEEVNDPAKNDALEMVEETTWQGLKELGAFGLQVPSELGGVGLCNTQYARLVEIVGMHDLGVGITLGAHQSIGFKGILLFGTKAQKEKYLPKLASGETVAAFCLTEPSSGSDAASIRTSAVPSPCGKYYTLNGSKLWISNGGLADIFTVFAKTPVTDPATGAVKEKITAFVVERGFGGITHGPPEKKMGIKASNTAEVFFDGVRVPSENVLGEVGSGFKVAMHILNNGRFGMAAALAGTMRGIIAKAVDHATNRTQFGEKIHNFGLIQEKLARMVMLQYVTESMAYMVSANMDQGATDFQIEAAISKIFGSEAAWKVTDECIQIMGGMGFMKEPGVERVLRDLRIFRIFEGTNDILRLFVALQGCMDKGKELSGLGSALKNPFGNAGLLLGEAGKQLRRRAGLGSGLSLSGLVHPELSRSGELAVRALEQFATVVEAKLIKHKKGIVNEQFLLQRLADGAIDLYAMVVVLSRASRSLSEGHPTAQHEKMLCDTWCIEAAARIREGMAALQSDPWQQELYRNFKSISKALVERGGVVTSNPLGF

[2] = molecular target: T2, Adenine phosphoribosyltransferase (Homo sapiens, UniProt P07741)
T2 sequence (P07741 whole entry): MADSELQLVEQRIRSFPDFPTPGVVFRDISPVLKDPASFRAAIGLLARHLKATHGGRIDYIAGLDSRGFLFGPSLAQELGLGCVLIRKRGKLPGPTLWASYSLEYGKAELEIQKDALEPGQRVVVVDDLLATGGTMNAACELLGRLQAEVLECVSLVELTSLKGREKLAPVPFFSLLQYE

[3] = molecular target: T3, Serine/threonine-protein kinase A-Raf (Homo sapiens, UniProt P10398)
T3 sequence (P10398 whole entry): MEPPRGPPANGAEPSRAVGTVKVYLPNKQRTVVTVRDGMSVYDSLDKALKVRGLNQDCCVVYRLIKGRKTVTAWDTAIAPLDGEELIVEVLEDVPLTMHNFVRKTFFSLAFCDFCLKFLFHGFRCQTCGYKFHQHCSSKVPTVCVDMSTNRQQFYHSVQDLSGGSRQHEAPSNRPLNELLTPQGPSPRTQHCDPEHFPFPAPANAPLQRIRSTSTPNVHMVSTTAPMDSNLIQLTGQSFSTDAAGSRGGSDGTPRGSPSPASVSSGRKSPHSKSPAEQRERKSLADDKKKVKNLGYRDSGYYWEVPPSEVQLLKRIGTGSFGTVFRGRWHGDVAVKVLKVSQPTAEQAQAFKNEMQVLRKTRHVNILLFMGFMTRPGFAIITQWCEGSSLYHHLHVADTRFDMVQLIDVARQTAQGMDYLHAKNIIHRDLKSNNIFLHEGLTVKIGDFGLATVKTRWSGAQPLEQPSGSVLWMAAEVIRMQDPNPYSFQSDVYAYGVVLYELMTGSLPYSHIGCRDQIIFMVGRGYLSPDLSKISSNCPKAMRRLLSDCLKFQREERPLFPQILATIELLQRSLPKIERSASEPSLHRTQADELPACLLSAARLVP

[4] = molecular target: Calcium/calmodulin-dependent protein kinase type II subunit gamma (Homo sapiens, UniProt Q13555)
[5] = molecular target: Cyclin-dependent kinase 5 (Homo sapiens, UniProt Q00535)
[6] = molecular target: Serine/threonine-protein kinase/endoribonuclease IRE2 (Homo sapiens, UniProt Q76MJ5)
Scaffold protein ILK = molecular target: T4, Scaffold protein ILK (Homo sapiens, UniProt Q13418)
T4 sequence (Q13418 whole entry): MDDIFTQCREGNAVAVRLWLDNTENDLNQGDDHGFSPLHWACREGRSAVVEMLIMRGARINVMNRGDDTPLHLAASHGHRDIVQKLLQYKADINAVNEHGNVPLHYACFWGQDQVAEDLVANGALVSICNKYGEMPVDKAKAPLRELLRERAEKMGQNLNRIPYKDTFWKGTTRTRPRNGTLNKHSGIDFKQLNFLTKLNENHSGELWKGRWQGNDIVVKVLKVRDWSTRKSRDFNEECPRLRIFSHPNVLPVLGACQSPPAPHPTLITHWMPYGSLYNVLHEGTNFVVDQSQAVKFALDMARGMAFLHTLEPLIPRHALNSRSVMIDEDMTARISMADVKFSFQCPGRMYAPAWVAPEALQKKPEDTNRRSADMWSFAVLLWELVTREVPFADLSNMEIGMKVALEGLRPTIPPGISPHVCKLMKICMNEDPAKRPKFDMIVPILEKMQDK

[7] = molecular target: Mitogen-activated protein kinase kinase kinase 1 (Homo sapiens, UniProt Q13233)
[8] = molecular target: T5, Serine/threonine-protein kinase Nek3 (Homo sapiens, UniProt P51956)
T5 sequence (P51956 whole entry): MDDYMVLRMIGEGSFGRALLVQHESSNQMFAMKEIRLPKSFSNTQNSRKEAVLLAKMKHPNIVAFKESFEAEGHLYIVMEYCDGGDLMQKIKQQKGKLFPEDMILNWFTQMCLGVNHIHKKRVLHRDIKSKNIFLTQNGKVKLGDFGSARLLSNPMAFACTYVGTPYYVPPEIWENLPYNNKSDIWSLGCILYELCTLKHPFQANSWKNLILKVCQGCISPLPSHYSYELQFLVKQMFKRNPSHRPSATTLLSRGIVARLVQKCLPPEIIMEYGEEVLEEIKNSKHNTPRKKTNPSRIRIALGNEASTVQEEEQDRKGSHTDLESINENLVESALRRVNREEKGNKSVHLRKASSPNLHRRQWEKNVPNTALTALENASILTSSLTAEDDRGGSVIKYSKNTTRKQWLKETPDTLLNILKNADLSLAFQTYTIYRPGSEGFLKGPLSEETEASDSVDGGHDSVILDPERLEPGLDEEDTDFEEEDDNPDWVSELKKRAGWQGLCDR
Also: in the data inactive means no Kd found up to 30 µM.

Serine/threonine-protein kinase/endoribonuclease IRE2, sequence (Q76MJ5 whole entry): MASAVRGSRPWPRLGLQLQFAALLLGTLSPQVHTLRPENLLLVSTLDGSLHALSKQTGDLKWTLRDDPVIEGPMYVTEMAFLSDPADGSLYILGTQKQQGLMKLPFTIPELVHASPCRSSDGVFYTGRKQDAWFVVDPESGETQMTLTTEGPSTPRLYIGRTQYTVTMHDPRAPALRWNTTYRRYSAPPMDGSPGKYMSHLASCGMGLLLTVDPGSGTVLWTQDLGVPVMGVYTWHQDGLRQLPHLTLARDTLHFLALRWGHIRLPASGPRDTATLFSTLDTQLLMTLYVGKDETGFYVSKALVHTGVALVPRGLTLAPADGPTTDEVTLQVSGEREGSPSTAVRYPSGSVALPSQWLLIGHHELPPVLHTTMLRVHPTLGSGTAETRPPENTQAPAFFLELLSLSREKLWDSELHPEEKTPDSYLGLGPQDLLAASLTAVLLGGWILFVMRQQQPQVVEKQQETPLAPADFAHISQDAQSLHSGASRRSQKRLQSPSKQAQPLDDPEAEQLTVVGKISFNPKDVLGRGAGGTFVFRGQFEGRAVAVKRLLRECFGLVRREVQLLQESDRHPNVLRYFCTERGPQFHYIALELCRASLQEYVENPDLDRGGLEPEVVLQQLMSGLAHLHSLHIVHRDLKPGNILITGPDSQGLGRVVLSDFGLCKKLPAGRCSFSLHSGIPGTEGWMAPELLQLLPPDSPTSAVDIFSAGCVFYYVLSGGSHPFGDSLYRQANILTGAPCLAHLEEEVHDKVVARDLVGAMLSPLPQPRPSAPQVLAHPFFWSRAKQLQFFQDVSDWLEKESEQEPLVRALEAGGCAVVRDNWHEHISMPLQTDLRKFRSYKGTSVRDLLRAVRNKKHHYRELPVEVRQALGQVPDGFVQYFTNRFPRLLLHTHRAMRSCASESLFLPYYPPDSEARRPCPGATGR
Cyclin-dependent kinase 5, sequence (Q00535 whole entry): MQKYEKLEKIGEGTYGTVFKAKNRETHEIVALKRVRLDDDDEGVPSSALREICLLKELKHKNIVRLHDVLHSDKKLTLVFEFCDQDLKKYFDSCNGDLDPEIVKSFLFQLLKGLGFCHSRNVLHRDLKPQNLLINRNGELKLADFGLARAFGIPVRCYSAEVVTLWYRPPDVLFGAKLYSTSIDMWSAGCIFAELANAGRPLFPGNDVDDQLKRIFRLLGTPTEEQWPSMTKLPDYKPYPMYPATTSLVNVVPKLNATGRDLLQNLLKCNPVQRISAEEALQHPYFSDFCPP
Mitogen-activated protein kinase kinase kinase 1, sequence (Q13233 whole entry): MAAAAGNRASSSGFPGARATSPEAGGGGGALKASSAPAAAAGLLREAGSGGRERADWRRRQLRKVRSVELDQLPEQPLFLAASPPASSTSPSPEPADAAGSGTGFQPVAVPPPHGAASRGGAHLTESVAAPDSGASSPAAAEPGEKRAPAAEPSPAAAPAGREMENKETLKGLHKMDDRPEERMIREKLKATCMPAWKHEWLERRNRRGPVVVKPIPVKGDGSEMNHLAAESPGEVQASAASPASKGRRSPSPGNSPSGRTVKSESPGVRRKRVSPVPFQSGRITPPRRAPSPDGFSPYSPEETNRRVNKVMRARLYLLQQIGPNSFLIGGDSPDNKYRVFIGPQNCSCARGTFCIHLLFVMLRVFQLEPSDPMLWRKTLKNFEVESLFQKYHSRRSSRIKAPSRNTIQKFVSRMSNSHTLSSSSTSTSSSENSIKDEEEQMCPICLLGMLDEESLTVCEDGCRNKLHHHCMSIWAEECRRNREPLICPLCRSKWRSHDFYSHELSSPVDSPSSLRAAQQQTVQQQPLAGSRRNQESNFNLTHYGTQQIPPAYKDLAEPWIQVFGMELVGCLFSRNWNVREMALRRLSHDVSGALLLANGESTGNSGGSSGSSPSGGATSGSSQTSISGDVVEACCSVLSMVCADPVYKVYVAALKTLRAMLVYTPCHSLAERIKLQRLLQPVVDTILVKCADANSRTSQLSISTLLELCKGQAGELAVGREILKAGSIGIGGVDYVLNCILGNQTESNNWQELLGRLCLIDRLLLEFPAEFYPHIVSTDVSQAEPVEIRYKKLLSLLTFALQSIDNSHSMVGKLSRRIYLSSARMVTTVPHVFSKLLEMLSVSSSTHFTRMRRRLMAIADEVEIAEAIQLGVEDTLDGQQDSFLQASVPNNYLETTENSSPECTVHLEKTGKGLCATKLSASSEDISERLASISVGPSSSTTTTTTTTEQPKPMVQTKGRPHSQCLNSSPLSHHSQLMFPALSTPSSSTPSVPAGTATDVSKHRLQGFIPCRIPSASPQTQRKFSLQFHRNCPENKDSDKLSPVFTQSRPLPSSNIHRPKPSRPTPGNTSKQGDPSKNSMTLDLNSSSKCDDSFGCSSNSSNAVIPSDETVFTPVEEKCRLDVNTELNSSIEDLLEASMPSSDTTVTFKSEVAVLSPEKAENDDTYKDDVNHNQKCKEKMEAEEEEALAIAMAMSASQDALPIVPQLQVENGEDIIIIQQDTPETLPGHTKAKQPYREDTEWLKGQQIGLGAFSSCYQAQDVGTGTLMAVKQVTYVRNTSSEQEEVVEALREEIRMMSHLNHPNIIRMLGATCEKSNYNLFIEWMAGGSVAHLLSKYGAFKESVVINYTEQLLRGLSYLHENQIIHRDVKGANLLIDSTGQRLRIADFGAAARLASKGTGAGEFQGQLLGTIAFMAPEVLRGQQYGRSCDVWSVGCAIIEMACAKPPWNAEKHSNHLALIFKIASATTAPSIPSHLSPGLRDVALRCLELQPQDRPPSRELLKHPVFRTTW
Calcium/calmodulin-dependent protein kinase type II subunit gamma, sequence (Q13555 whole entry): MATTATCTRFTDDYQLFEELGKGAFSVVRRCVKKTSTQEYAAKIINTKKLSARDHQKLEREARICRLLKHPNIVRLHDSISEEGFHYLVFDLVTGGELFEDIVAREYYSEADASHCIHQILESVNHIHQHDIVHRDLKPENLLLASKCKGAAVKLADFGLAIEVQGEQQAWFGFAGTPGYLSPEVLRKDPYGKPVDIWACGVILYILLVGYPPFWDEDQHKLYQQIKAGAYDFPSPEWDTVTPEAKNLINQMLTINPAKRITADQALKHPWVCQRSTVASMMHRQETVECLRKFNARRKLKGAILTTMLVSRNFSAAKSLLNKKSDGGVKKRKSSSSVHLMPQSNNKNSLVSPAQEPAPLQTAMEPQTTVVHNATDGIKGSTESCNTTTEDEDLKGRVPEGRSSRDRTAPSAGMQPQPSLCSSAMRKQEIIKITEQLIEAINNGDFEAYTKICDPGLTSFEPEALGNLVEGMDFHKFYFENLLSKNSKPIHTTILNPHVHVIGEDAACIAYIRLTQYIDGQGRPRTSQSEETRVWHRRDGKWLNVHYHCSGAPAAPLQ

Structure (SMILES)	Kd [1]	Kd [2]	Kd [3]	Kd [4]	Kd [5]	Kd [6]	Kd (Scaffold protein ILK)	Kd [7]	Kd [8]
COc1ncc(-c2ccc3nccc(-c4ccnnc4)c3c2)cc1NS(=O)(=O)c1ccc(F)cc1F [OMIPALISIB]	> 30 µM (inactive)	> 30 µM (inactive)	> 30 µM (inactive)	> 30 µM (inactive)	> 30 µM (inactive)	> 30 µM (inactive)	> 30 µM (inactive)	> 30 µM (inactive)	> 30 µM (inactive)
CCOc1cc2ncc(C#N)c(Nc3ccc(F)c(Cl)c3)c2cc1NC(=O)/C=C/CN(C)C [PELITINIB]	> 30 µM (inactive)	> 30 µM (inactive)	> 30 µM (inactive)	> 30 µM (inactive)	> 30 µM (inactive)	> 30 µM (inactive)	> 30 µM (inactive)	0.097 µM (active)	> 30 µM (inactive)
CCCCCCCCCCCCCCCCCCOP(=O)([O-])OC1CC[N+](C)(C)CC1 [PERIFOSINE]	> 30 µM (inactive)	> 30 µM (inactive)	> 30 µM (inactive)	> 30 µM (inactive)	> 30 µM (inactive)	> 30 µM (inactive)	> 30 µM (inactive)	> 30 µM (inactive)	> 30 µM (inactive)
Cc1cnc(NC(=O)Nc2cc(Br)c(C)cc2OC[C@@H]2CNCCO2)cn1 [RABUSERTIB]	> 30 µM (inactive)	> 30 µM (inactive)	> 30 µM (inactive)	> 30 µM (inactive)	> 30 µM (inactive)	> 30 µM (inactive)	> 30 µM (inactive)	> 30 µM (inactive)	> 30 µM (inactive)
CO[C@H]1C[C@@H]2CC[C@@H](C)[C@@](O)(O2)C(=O)C(=O)N2CCCC[C@H]2C(=O)O[C@H]([C@H](C)C[C@@H]2CC[C@@H](OP(C)(C)=O)[C@H](OC)C2)CC(=O)[C@H](C)/C=C(\C)[C@@H](O)[C@@H](OC)C(=O)[C@H](C)C[C@H](C)/C=C/C=C/C=C/1C [RIDAFOROLIMUS]	> 30 µM (inactive)	> 30 µM (inactive)	> 30 µM (inactive)	> 30 µM (inactive)	> 30 µM (inactive)	> 30 µM (inactive)	> 30 µM (inactive)	> 30 µM (inactive)	> 30 µM (inactive)
N#CC1(c2ccc(NC(=O)c3cccnc3NCc3ccncc3)cc2)CCCC1 [RIVOCERANIB]	> 30 µM (inactive)	> 30 µM (inactive)	> 30 µM (inactive)	> 30 µM (inactive)	> 30 µM (inactive)	> 30 µM (inactive)	> 30 µM (inactive)	> 30 µM (inactive)	> 30 µM (inactive)
O=c1[nH]ccc2cc(OC3CCNCC3)ccc12 [SAR-407899 FREE BASE]	> 30 µM (inactive)	> 30 µM (inactive)	> 30 µM (inactive)	> 30 µM (inactive)	> 30 µM (inactive)	> 30 µM (inactive)	> 30 µM (inactive)	> 30 µM (inactive)	> 30 µM (inactive)
CO[C@H]1C[C@@H]2CC[C@@H](C)[C@@](O)(O2)C(=O)C(=O)N2CCCC[C@H]2C(=O)O[C@H]([C@H](C)C[C@@H]2CC[C@@H](O)[C@H](OC)C2)CC(=O)[C@H](C)/C=C(\C)[C@@H](O)[C@@H](OC)C(=O)[C@H](C)C[C@H](C)/C=C/C=C/C=C/1C [SIROLIMUS]	> 30 µM (inactive)	> 30 µM (inactive)	> 30 µM (inactive)	> 30 µM (inactive)	> 30 µM (inactive)	> 30 µM (inactive)	> 30 µM (inactive)	> 30 µM (inactive)	> 30 µM (inactive)
CCS(=O)(=O)c1cccc(-c2cc(C(=O)NC3CCN(C)CC3)c(C)c3[nH]c4ncc(C)cc4c23)c1 [TAK-901]	> 30 µM (inactive)	> 30 µM (inactive)	> 30 µM (inactive)	> 30 µM (inactive)	> 30 µM (inactive)	> 30 µM (inactive)	> 30 µM (inactive)	> 30 µM (inactive)	> 30 µM (inactive)
CO[C@H]1C[C@@H]2CC[C@@H](C)[C@@](O)(O2)C(=O)C(=O)N2CCCC[C@H]2C(=O)O[C@H]([C@H](C)C[C@@H]2CC[C@@H](OC(=O)C(C)(CO)CO)[C@H](OC)C2)CC(=O)[C@H](C)/C=C(\C)[C@@H](O)[C@@H](OC)C(=O)[C@H](C)C[C@H](C)/C=C/C=C/C=C/1C [TEMSIROLIMUS]	> 30 µM (inactive)	> 30 µM (inactive)	> 30 µM (inactive)	> 30 µM (inactive)	> 30 µM (inactive)	> 30 µM (inactive)	> 30 µM (inactive)	> 30 µM (inactive)	> 30 µM (inactive)
COc1cc2c(Nc3ccc(Cl)c(Cl)c3F)ncnc2cc1OC[C@@H]1C[C@@H]2CN(C)C[C@@H]2C1 [TESEVATINIB]	> 30 µM (inactive)	> 30 µM (inactive)	> 30 µM (inactive)	> 30 µM (inactive)	> 30 µM (inactive)	> 30 µM (inactive)	> 30 µM (inactive)	1.74 µM (active)	> 30 µM (inactive)
O=C(Cc1ccc(-c2ccc(OCCN3CCOCC3)cc2)cn1)NCc1ccccc1 [TIRBANIBULIN]	> 30 µM (inactive)	> 30 µM (inactive)	> 30 µM (inactive)	> 30 µM (inactive)	> 30 µM (inactive)	> 30 µM (inactive)	> 30 µM (inactive)	> 30 µM (inactive)	> 30 µM (inactive)
O=C1NC(=O)[C@@H](c2cn3c4c(cccc24)CCC3)[C@@H]1c1c[nH]c2ccccc12 [TIVANTINIB]	> 30 µM (inactive)	> 30 µM (inactive)	> 30 µM (inactive)	> 30 µM (inactive)	> 30 µM (inactive)	> 30 µM (inactive)	> 30 µM (inactive)	> 30 µM (inactive)	> 30 µM (inactive)
C[C@@H](NC(=O)c1ncnc(N)c1Cl)c1ncc(C(=O)Nc2cc(C(F)(F)F)c(Cl)cn2)s1 [TOVORAFENIB]	> 30 µM (inactive)	> 30 µM (inactive)	> 30 µM (inactive)	> 30 µM (inactive)	> 30 µM (inactive)	> 30 µM (inactive)	> 30 µM (inactive)	2.09 µM (active)	> 30 µM (inactive)
